For assay [1], the target named is T1, Bifunctional dihydrofolate reductase-thymidylate synthase (Toxoplasma gondii, UniProt Q07422).
T1 sequence (Q07422 whole entry): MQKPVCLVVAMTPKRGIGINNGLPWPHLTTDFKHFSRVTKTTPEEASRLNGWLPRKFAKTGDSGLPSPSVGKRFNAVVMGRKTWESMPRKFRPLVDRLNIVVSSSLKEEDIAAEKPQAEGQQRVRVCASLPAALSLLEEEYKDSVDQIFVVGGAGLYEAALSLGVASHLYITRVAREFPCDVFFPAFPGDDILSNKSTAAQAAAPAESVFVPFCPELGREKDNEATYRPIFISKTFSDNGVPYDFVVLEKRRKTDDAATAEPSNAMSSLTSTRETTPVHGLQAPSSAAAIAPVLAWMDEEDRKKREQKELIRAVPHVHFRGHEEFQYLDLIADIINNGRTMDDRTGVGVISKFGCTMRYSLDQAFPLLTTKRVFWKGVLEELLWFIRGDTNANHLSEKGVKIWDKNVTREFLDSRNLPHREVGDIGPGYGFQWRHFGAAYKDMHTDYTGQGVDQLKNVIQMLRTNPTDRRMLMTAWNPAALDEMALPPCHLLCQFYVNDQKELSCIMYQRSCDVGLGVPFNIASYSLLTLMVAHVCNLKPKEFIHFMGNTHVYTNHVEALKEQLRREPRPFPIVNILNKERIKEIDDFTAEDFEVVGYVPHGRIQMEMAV
The assay can be described thus: Inhibitory concentration against Toxoplasma gondii Dihydrofolate reductase.

The target of the next assay is Dihydrofolate reductase (Lacticaseibacillus casei, UniProt P00381). The assay can be described thus: Inhibitory concentration against Lactobacillus casei Dihydrofolate reductase.
Chain of Dihydrofolate reductase (P00381 whole entry): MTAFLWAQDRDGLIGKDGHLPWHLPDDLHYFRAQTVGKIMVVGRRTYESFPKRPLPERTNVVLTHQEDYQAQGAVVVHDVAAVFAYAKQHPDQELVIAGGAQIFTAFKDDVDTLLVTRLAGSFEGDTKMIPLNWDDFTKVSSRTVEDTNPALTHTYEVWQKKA

As to `C/C(=C\c1coc2nc(N)nc(N)c12)c1ccc(C(=O)N[C@@H](CCC(=O)O)C(=O)O)cc1`, the half-inhibitory concentration (IC50) (in assay [1]; on Dihydrofolate reductase) was 4.4 µM throughout.

Source of the values: BindingDB's records for doi:10.1021/jm000130i (Duquesne University, 2000).
